Experiment [1] concerns the target Voltage-gated inwardly rectifying potassium channel KCNH2 (Homo sapiens, UniProt Q12809). Particulars: Potency.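 Also: confirmatory quantitative high-throughput screen measuring inhibition of hERG channel activity.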
Experiment [2] has as its target T1, Lysine-specific demethylase 4C (Homo sapiens, UniProt Q9H3R0).
T1 sequence (Q9H3R0 whole entry): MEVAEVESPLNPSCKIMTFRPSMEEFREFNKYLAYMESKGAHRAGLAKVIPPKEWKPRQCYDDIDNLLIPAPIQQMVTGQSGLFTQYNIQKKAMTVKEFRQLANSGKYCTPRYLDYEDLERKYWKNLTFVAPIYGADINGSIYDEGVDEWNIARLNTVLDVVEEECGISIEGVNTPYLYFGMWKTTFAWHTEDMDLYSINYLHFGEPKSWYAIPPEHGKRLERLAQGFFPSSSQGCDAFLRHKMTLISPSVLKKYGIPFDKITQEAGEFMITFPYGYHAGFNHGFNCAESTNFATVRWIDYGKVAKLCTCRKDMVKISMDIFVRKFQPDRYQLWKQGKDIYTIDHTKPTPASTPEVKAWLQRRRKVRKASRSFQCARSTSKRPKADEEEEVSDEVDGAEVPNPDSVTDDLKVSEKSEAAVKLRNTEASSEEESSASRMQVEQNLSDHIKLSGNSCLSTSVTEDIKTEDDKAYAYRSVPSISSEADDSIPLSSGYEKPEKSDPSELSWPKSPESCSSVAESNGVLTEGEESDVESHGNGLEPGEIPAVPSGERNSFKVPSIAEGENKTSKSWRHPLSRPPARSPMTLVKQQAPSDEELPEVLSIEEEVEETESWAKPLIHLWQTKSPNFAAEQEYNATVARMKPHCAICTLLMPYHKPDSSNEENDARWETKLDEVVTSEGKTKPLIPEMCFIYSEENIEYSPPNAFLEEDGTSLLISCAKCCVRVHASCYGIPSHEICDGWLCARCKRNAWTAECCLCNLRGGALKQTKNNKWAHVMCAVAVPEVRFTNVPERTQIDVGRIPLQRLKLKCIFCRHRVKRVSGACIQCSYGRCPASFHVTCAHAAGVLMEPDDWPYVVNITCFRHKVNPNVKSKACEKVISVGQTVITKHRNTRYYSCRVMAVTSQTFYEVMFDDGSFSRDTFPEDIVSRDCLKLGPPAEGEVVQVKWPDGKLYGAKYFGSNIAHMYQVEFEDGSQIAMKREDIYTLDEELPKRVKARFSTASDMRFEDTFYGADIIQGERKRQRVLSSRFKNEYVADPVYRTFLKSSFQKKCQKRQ
Kind of experiment: inhibition of JMJD2C H3K9me3 demethylation – biochemical, DELFIA europium, cherry-picked samples, dose response (AID 488835). It counts as functional.

In experiment [3] the target is T2, Short transient receptor potential channel 4 (Mus musculus, UniProt Q9QUQ5).
T2 sequence (Q9QUQ5 whole entry): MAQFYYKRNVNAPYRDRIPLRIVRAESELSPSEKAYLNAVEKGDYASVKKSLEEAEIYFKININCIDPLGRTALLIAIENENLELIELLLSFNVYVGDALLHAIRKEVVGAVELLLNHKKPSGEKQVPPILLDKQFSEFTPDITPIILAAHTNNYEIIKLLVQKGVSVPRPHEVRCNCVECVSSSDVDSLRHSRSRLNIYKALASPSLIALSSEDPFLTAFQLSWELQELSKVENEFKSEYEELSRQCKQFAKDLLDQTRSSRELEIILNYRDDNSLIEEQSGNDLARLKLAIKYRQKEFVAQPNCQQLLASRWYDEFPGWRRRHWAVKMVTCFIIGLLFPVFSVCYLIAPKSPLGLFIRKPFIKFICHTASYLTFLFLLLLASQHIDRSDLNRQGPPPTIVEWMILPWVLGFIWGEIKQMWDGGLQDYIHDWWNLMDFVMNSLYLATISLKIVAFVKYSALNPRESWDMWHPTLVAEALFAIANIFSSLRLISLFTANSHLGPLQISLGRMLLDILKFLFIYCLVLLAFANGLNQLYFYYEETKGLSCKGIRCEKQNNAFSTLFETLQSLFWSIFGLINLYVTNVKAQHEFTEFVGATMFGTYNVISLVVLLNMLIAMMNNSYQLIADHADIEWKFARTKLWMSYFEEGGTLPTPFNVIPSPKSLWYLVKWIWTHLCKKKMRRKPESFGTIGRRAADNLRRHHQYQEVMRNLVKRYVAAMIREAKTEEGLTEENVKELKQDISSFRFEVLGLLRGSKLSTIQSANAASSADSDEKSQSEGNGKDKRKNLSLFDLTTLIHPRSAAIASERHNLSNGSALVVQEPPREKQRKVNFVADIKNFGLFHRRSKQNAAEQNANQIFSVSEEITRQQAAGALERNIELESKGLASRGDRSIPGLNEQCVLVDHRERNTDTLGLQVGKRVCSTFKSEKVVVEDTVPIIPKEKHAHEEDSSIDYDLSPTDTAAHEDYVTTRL
Kind of experiment: calcium entry via TRPC4 opening agents – cell-based, HEK293 TRPC4/mu-opioid, Fluo-4 calcium, dose response (AID 434937). It counts as functional.

Experiment [4] has as its target T3, RNA-binding protein pos-1 (Caenorhabditis elegans, UniProt G5EF15).
T3 sequence (G5EF15 whole entry): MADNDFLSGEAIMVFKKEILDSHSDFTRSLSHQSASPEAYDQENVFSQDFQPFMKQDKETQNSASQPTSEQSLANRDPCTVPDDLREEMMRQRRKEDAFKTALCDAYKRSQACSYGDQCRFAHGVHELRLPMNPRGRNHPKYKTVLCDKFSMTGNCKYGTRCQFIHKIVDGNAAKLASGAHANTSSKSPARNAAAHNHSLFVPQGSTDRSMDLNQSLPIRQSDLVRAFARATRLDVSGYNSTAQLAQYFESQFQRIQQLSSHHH
Kind of experiment: disruptors of C. elegans POS-1 RNA interaction – biochemical, fluorescence polarization, dose response (AID 1964).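 Also: purified POS-1 fused to maltose binding protein made in E. coli; potency of compounds blocking POS-1 binding to fluorescent RNA.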

For experiment [5], the target named is T4, Endoribonuclease toxin MazF (Escherichia coli K-12, UniProt P0AE70).
T4 sequence (P0AE70 whole entry): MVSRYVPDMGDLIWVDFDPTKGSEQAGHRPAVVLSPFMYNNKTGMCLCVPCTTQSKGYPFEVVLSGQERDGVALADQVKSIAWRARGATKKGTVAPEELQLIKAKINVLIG
Kind of experiment: activation of MazEF endoribonuclease cleavage – biochemical, fluorescence, single-stranded RNA substrate, uHTS hits, dose response (AID 588481). It is filed as functional.

Experiment [6] deals with T5, Zinc finger protein mex-5 (Caenorhabditis elegans, UniProt Q9XUB2).
T5 sequence (Q9XUB2 whole entry): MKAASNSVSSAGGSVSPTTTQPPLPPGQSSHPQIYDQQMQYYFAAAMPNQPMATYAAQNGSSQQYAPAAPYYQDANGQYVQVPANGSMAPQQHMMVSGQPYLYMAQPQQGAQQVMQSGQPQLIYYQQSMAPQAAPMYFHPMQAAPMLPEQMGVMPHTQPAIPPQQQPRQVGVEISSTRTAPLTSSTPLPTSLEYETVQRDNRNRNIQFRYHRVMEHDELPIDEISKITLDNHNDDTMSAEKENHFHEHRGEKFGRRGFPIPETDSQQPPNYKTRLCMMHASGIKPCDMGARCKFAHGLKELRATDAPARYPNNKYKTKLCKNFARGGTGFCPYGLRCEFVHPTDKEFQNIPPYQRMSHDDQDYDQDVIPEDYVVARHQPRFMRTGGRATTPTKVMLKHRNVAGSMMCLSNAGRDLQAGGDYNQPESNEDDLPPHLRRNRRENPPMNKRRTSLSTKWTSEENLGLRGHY
Kind of experiment: potency of MEX-5 RNA-binding blockers – biochemical, C. elegans, fluorescence polarization, dose response (AID 1960). For orientation: Polarisation of emitted light reports the rotation of a fluorescent probe.

Experiment [7] has as its target Glucose-6-phosphate 1-dehydrogenase (Homo sapiens, UniProt P11413). Kind of experiment: inhibition of Homo sapiens G6PD, dose series – biochemical, fluorescence, selectivity assay for P. falciparum G6PD inhibitor project, dose response (AID 504792). It counts as functional.
Experiment [8] concerns the target T4, Endoribonuclease toxin MazF. Kind of experiment: substrate-only fluorescence increase artefacts – biochemical, single-stranded RNase substrate, counter-screen for MazEF activator project, dose response (AID 588502). It is filed as functional.
Experiment [9] in a line: Luminescence Cell-Based Dose Confirmation HTS to Identify Inhibitors of Platelet Dense Granule Release. [Related pubchem assays: 1663 (Primary HTS), 1678 (Summary of Project)]. It is filed as functional.
Experiment [10] addresses T6, Luciferin 4-monooxygenase (Photinus pyralis, UniProt P08659). Kind of experiment: inhibition of purified Photinus pyralis luciferase – biochemical, luminescence, dose response (AID 1891).
Experiment [11] deals with HT-1080. Kind of experiment: HT1080 cell viability loss – fluorescence readout (AID 620). It counts as functional, cell-based. Particulars: Homo sapiens.
The target in experiment [12] is T6, Luciferin 4-monooxygenase. Kind of experiment: Counter Screen for Luciferase-based Assay Positives. [Related pubchem assays: 620, 618, 411 ].
The target of experiment [13] is T7, Microphthalmia-associated transcription factor (Homo sapiens, UniProt O75030).
T7 sequence (O75030 whole entry): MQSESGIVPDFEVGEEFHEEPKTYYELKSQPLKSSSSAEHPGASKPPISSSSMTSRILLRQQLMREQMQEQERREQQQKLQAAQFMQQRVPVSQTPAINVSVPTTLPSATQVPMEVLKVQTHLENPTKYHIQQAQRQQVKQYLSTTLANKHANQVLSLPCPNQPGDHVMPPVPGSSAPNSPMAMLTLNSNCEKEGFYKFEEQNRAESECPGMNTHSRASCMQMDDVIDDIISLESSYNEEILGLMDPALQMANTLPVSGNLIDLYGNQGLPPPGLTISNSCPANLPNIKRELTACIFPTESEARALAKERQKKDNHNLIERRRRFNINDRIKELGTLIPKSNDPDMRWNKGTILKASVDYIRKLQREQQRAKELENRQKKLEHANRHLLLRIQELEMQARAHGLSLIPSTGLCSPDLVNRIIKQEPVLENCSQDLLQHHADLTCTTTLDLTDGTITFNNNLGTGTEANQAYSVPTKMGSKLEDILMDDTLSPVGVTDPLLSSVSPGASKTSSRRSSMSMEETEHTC
Kind of experiment: reducers of TRPM1 reporter luminescence, concentration series – cell-based, SK-MEL-5, cherry-picked, set 3, MITF inhibitor project, dose response (AID 493073).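 Also: SK-MEL-5 melanoma cells with luciferase driven by the MITF target TRPM1 promoter.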 It is filed as functional.

Experiment [14] addresses T8, Polyadenylate-binding protein 1 (Homo sapiens, UniProt P11940). Kind of experiment: MLLE domain peptide-binding blockers, IC50 – biochemical, fluorescence polarization, FITC-PAM2 peptide, dose response (AID 602259). Particulars: read-out: IC50_Mean. It is filed as functional.
The target in experiment [15] is T8, Polyadenylate-binding protein 1. Kind of experiment: MLLE binding blockers, Cy5 peptide tracer – biochemical, fluorescence polarization, Cy5-PAM2 peptide, secondary, miRNA deadenylation inhibitor project, dose response (AID 602260). It counts as functional. Particulars: read-out: IC50_Mean.
Experiment [16] addresses Cytochrome P450 3A4 (Homo sapiens, UniProt P08684). Particulars: Potency.

The source made the active and inactive calls. Bridge positions count the residues as written; N and C are the ends. Square brackets hold non-standard residues; d marks the D form. Peptide text beside a SMILES is read from it. * marks the point of attachment. X1 = CCC(C)C(N)C1=NC(C(=O)*)CS1; dOrn = NCCC[C@@H](N)C(=O)O

As usually defined, the AC50 is the concentration giving half of the maximal activity seen. One may read the EC50 as the concentration needed to bring the measured effect to its halfway point.

Voltage-gated inwardly rectifying potassium channel KCNH2, sequence (Q12809 whole entry): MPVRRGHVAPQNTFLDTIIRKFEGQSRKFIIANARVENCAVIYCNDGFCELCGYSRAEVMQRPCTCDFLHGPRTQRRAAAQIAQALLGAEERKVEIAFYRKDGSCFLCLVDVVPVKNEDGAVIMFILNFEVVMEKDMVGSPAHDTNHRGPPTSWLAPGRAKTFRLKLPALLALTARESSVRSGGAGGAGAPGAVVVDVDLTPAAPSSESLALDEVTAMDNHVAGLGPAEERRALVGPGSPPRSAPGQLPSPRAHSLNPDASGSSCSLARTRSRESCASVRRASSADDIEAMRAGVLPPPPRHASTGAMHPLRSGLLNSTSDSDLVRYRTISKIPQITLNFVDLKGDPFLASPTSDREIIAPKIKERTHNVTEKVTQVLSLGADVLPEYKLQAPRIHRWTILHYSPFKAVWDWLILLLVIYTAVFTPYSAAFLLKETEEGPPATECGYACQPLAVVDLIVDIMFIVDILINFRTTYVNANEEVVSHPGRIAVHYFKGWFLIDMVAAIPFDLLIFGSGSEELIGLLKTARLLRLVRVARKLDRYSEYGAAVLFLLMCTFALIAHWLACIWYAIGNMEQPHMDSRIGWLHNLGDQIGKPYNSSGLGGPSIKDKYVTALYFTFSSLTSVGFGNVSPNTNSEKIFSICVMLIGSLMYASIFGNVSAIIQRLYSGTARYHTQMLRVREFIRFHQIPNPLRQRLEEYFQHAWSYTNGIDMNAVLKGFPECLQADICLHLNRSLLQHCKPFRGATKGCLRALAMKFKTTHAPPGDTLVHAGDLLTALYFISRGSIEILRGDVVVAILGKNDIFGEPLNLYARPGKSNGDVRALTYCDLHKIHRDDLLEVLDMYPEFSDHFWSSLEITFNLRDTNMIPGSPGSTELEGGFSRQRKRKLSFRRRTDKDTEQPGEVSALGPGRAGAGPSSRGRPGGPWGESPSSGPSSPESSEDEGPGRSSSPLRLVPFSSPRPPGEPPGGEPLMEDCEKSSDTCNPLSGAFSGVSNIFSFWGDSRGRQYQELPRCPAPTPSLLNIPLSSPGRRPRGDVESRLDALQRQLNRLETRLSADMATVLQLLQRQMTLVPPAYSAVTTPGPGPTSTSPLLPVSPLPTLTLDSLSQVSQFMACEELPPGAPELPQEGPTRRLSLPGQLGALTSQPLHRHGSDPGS
T6 sequence (P08659 whole entry): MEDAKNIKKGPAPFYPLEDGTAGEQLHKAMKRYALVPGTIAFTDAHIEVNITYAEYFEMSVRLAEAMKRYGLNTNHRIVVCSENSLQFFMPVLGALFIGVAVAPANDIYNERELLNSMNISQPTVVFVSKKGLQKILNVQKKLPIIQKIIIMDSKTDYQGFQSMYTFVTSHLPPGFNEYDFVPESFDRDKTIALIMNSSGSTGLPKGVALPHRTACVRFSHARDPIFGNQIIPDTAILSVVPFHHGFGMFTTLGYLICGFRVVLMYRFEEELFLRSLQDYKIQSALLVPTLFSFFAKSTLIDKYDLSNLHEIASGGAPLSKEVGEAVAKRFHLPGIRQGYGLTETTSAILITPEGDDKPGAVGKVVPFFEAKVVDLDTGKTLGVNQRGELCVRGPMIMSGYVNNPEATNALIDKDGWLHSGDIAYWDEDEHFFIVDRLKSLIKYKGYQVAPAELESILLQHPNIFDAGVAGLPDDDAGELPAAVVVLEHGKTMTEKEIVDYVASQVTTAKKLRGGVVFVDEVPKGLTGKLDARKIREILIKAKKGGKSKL
T8 sequence (P11940 whole entry, the tested form may be a part): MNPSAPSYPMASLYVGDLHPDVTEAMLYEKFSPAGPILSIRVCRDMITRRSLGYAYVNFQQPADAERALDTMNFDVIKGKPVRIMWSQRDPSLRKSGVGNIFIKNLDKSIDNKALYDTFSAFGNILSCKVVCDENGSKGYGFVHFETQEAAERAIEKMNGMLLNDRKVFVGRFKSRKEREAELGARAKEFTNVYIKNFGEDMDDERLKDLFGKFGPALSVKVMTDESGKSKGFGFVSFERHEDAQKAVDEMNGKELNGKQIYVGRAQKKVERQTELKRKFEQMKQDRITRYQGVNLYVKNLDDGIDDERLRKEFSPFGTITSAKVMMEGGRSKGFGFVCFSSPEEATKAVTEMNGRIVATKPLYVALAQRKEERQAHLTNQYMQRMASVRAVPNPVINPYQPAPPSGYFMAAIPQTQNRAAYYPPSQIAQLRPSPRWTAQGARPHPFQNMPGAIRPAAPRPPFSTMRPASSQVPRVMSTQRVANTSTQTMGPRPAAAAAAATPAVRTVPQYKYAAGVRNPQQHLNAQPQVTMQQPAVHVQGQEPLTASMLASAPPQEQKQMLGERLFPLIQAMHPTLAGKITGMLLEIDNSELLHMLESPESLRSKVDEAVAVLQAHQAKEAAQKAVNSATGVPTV
Cytochrome P450 3A4, sequence (P08684 whole entry): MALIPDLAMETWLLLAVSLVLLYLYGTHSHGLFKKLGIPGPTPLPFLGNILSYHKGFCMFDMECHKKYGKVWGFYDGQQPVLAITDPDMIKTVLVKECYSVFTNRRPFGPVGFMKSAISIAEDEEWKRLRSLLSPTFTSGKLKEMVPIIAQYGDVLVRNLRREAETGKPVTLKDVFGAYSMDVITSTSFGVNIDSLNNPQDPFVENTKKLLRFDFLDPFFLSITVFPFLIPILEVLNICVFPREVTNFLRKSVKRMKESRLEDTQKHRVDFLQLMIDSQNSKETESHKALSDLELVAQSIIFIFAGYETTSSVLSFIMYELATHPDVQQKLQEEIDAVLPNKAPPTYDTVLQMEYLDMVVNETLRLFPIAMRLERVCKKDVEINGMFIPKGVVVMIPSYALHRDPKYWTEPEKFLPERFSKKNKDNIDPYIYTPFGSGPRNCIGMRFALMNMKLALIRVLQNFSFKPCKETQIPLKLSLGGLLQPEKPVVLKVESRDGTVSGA
Glucose-6-phosphate 1-dehydrogenase, sequence (P11413 whole entry): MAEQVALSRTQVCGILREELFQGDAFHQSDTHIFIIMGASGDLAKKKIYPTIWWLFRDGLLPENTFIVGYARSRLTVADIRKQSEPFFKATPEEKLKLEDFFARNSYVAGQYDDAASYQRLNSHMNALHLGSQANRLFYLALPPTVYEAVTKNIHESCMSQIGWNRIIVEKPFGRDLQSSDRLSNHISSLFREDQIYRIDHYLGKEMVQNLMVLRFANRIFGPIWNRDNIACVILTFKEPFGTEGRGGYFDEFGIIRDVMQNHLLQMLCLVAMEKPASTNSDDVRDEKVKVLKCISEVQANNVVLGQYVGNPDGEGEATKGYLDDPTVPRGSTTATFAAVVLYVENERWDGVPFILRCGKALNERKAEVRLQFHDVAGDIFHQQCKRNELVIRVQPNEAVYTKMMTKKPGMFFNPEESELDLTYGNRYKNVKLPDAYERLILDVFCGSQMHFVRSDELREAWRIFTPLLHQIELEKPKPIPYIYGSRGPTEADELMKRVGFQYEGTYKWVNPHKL

`CC(C)N=C=NC(C)C`: in experiment [1], the AC50 is 35.5 µM (inconclusive).
Turning to `Cc1ccc(-c2csc3nc4cc(C(=O)NC5CCC(O)CC5)ccc4c(=O)n23)cc1` (centres undefined), the AC50 in experiment [2] is 3.96 µM (active).
Regarding `CC1(c2ccc(Cl)cc2Cl)OCC(Cn2ccnc2)O1` (centres undefined), the EC50 in experiment [3] was 2.37 µM (active).
`Cc1c(Cl)cccc1NC(S)=NCC(c1cccnc1)N(C)C` (centres undefined): in [3], the half-maximal effective concentration (EC50) is 0.0013 µM (active).
With `O=C(NCc1ccccn1)c1cn(Cc2ccccc2)nn1`, the AC50 in experiment [2] is > 60 µM (inactive).
As for `CN(C)C(CNC(=O)c1ccc2[nH]cnc2c1)c1ccccc1` (centres undefined), the EC50 in [3] was 0.473 µM (active).
With `O=c1[nH]nc(CNc2ccc(O)cc2)c2ccccc12`, the EC50 was 11.8 µM (active) in [4], > 99 µM (inactive) in [5], 15.3 µM (inconclusive) in experiment [6] and > 99 µM (inactive) in experiment [8]. In experiment [7], the IC50 was > 80 µM (inactive).
Regarding `O=C(N=CNOCc1ccc(Cl)cc1Cl)NOCc1c(Cl)cccc1Cl`, the EC50 was > 112 µM (not active) in experiment [9], > 112 µM (not active) in experiment [10], > 99 µM (inactive) in experiment [5] and > 99 µM (inactive) in experiment [8].
As to `CCc1ccc(-c2cc(C(=O)Nn3cnnc3)c3ccccc3n2)cc1`, the EC50 in experiment [11] was > 50 µM (not active); in experiment [12], 2.73 µM (active). Besides, the AC50 in [13] was 12.5 µM (active).
Regarding `C[C@H](CO)N1C[C@H](C)[C@@H](CN(C)Cc2ccc3c(c2)OCO3)Oc2c(NC(=O)C3CCCCC3)cccc2C1=O`, in [2], the AC50 was 13.1 µM (active).
Consider `CCOc1ccc(/N=C/C=C(/O)c2ccc(OC)cc2)c([N+](=O)[O-])c1`, for which the EC50 was > 99 µM (inactive) in [5] and 6.29 µM (active) in [8]. Further, the IC50 in experiment [14] and in experiment [15] was > 66 µM (inactive) throughout.
As for `CCC(C)C(N)C1=NC(C(=O)N[C@@H](CC(C)C)C(=O)N[C@H](CCC(=O)O)C(=O)N[C@H](C(=O)N[C@H]2CCCCNC(=O)[C@H](CC(N)=O)NC(=O)[C@@H](CC(=O)O)NC(=O)[C@H](Cc3c[nH]cn3)NC(=O)[C@@H](Cc3ccccc3)NC(=O)[C@H]([C@@H](C)CC)NC(=O)[C@@H](CCCN)NC2=O)[C@@H](C)CC)CS1` (some centres undefined) (X1-L[dE]IK[dOrn]I[dF]H[dD]N; lactam 4-C), the EC50 in experiment [5] was 30.8 µM (inactive); in experiment [8] it was 4.71 µM (active).
Consider `COc1cc(CNC(=O)CCCCCCC(C)C)ccc1O` [DIHYDROCAPSAICIN], for which the AC50 in experiment [1] was 35.5 µM (inconclusive).
As to `CNC(=O)OCC[N+](C)(C)C` [METHYLCARBAMYLCHOLINE CHLORIDE], the AC50 in experiment [1] is 35.5 µM (inconclusive).
Turning to `CCCN(CCC)c1c([N+](=O)[O-])cc(C(F)(F)F)cc1[N+](=O)[O-]` [TRIFLURALIN], the AC50 was 15.8 µM (inconclusive) in experiment [16] and 14.1 µM (inconclusive) in experiment [1].

These data come from ChEMBL document CHEMBL1201862, “PubChem BioAssay data set” (2004).
